System: CD45+CD66b−CD14+CD16+ monocytes
Assay: Surface CD86 on monocytes by flow cytometry
Type: cell-based, human
Settings: PBMCs treated with MCP-1 for 24 h; CD86 MFI
Procedure: PBMCs were labelled for the investigation of monocytes with the following fluorochrome-labelled antibodies: anti-CD16 (3G8) anti-CD86 (FM95) anti-CD45 (2D1); anti-CD66b (G10F5); CD14 (Tuk4); CD80 (2D10); (Biolegend or Miltenyi). Each staining well contained 4×10^5 cells; cells were stained with LIVE/DEAD Aqua (Molecular Probes) followed by staining for 20 min on ice, washed, and analyzed by flow cytometry immediately. Flow cytometry was carried out on a BD LSR Fortessa cell analyzer and analyzed using FlowJo software (Tree Star).

Q: How did the “increase of CD86 membrane expression” value turn out when “MCP-1: chemokine monocyte chemoattractant protein CCL2/MCP-1” was run?
A: ~1.4 fold
